In patent publication US9115122B2, “Non-ATP dependent inhibitors of extracellular signal-regulated kinase (ERK)” (UNIVERSITY OF MARYLAND, BALTIMORE, priority 2012, dated 2015):

Key:
SK-MEL-28 melanoma cells [1] = assay: Cell proliferation WST-1 assay, single dose (Example 4); assay type: cell-based; conditions: 100 μM, 48 hours
In short: (§1)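 Proliferation is measured by WST-1 reduction: after roughly 5000 cells per well rest 16-20 hours, they receive compound for 48 hours, and the signal is normalized to DMSO control.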

HL-60 leukemic cells = assay: as above; assay type: cell-based; conditions: 100 μM, 48 hours
In short: as §1

A375 melanoma cells [2] = assay: as above; assay type: cell-based; conditions: 100 μM, 48 hours
In short: as §1

[3] = tested on: Jurkat T-cell leukemia cells; assay: as above; assay type: cell-based; conditions: 100 μM, 48 hours
In short: as §1

RPMI-7951 melanoma cells = assay: as above; assay type: cell-based; conditions: 100 μM, 48 hours
In short: as §1

[4] = tested on: HeLa cervical carcinoma cells; assay: as above; assay type: cell-based; conditions: 100 μM, 48 hours
In short: as §1

[5] = basic group replacing the ethylamine group; cited from earlier work
[6] = tested on: serum response element (SRE); assay: SRE promoter luciferase assay, HeLa cells (Example 4); assay type: cell-based
Protocol: (§2) HeLa cells were seeded in 24-well plates (4×10^4 cells/well) and incubated 18 hours prior to achieve ˜60-70% confluent. Cells were transfected with activator protein-1 (pAP1(PMA)-TA-Luc; Clontech) or the serum response element (pGL4.33-SRE; Promega) luciferase reporter plasmids (250 ng/well) using Lipofectamine™ (Invitrogen). After 16 hours, cells were treated with increasing amount of compounds as indicated for 20 minutes, followed by stimulation with EGF (25 ng/mL) for 4.5 hr. The luciferase activity in the cell extracts was determined with a Dual Luciferase Assay System (Promega) according to the manufacturer's instructions. Luciferase activities were monitored with a Lumat LB 9507 luminometer (Berthold Technology) and data were normalized to the amount of protein in each sample.

Jurkat cells = assay: Dose-response growth inhibition (GI50) of select compounds; assay type: cell-based; conditions: Homo sapiens, Jurkat
[7] = tested on: activator protein-1 (AP-1) promoter; assay: AP-1 promoter luciferase assay, HeLa cells (Example 4); assay type: cell-based
Protocol: as §2

SK-MEL-28 melanoma cells [8] = assay: Dose-response growth inhibition (GI50) of select compounds; assay type: cell-based; conditions: Homo sapiens, SK-MEL-28, 48 h, two days
Protocol: (§3) An example of the dose response curve for compound 30h and the BRaf inhibitor PLX4032 for inhibiting the growth of melanoma cell lines is shown in FIG. 14. […] A summary of GI50 values for select compounds along with comparisons to know ERK pathway inhibitors in various cell lines is shown in Table 13. […] First, thiazolidinedione compounds have been identified to be selective inhibitors of cancer cell lines containing activated ERK signaling. Second, changes in the 4-ethoxyphenyl component of the parent compound 76 improve selectivity and potency for inhibiting melanoma cell growth. Third, compound 30h is a potent inhibitor of melanoma cell lines that have become resistant to the clinically relevant BRaf and MEK inhibitors. […] Lastly, 30h is as potent as the ATP-competitive pyrazolopyridazinamine ERK inhibitor (FR180204) in preventing melanoma cell proliferation and provides an alternative non-ATP-dependent approach to target cancer cells that are dependent on active ERK signaling.
(§4) Melanoma cells (A375, SK-MEL-28, and RPMI7951) were seeded at a density of 5,000 per well in 96-well plate. After overnight incubation, cells were treated with varying doses of PLX4032 (A) or 31h (B) for two days. Cell viability was determined by the addition of Cell Titer-Blue Reagent (20 μL/well) followed by 2 hours of incubation at 37° C. after which fluorescence was recorded (555/585 nm). Cell viability was expressed as percentage of vehicle control and data represent the average of three individual experiments.

A375 melanoma cells [9] = assay: as above; assay type: cell-based; conditions: Homo sapiens, A-375, 48 h, two days
Protocol: as §3, §4

RPMI7951 melanoma cells [10] = assay: as above; assay type: cell-based; conditions: Homo sapiens, RPMI-7951, 48 h, two days
Protocol: as §3, §4

HeLa cells = assay: as above; assay type: cell-based; conditions: Homo sapiens, HeLa
AP-1 promoter = AP-1 promoter luciferase assay, EGF-stimulated HeLa cells (Example 1); assay type: cell-based; conditions: Homo sapiens, EGF stimulation, 4 hours, read-out: IC50 inhibition of the AP-1 promoter
Protocol: FIG. 4. Compound SF-3-026 and analogs inhibit SRE and AP-1 transcription factor function. (a) HeLa cells were transfected with constructs containing SRE or AP-1 promoters driving luciferase expression and then stimulated with EGF in the presence or absence of SF-3-026 for 4 hours followed by measurements of luciferase activity. Cells treated with U0126 were used as a positive inhibitor control. (b and c) HeLa cells were prepared and treated as in (a) with the indicated concentrations of SF-3-026 or analogs for 4 hours followed by the measurement of luciferase activity regulated by the SRE (b) or AP-1 (c) promoters. Data in (b and c) were normalized to EGF-only treatment and represent the mean and standard deviation from three independent experiments. (d) Compound SF-3-026 and analogs inhibit MEK1-induced AP-1 transcription factor function. […]
HeLa cells were seeded in 24-well plates (40,000 cells/well) and incubated 18 hours to achieve ˜60-70% confluent. […] The luciferase activity in the cell extracts was determined with a Dual Luciferase Assay System (Promega) according to the manufacturer's instructions. Luciferase activities were monitored with a Lumat LB 9507 luminometer (Berthold Technology) and data were normalized to the amount of protein in each sample. […]

A375 melanoma cells [11] = assay: Cell proliferation, fluorescent Cell Titer Blue Assay (Example 1); assay type: cell-based; conditions: Homo sapiens, A-375; 48 hours
Protocol: (§5) FIG. 5. Dose dependent inhibition of cancer cell proliferation in vitro by SF-3-026 and analogs. A375 (closes circles), RPM17951 (closed squares), HeLa (open circles), or Jurkat (open squares) cells were treated for 48 hours with indicated concentration of (a) SF-3-026, (b) SF-2-027, (c) SF-2-029, or (d) SF-2-030 and cell proliferation was assessed by the fluorescent Cell Titer Blue Assay. The data were reproduced in 3 separate experiments.
(§6) Cells were seeded at 25,000 cells/well in 96-well plate and cultured overnight. Cells were treated for 24 hours with various concentrations of compounds and cell viability or caspase 3/7 activity were measured according to manufacturer's instructions using the fluorescent Cell Titer Blue Assay (Promega) or luminescent Caspase 3/7 Glo Assay (Promega).
(§7) It was next determined whether inhibition of AP-1 proteins by SF-3-026 and analogs affected the proliferation of cancer cells driven by mutations that constitutively activate the ERK1/2 pathway. For these experiments, A375 and RPMI7951 melanoma cells, which have a valine to glutamate mutation on residue 600 in BRaf that causes constitutive ERK1/2 activation, were chosen. Moreover, RPMI7951 cells are resistant to clinically used BRaf inhibitors due to overexpression of MAP3K8 (the gene encoding COT/Tp12) that re-activates ERK1/2 signaling. Both melanoma cells lines were treated with varying doses of SF-3-026 or analogs and cell viability was compared to HeLa cervical carcinoma and Jurkat T-cell leukemia cells, which are p53 defective but contain no known activating mutations in the ERK1/2 pathway.

[12] = tested on: Jurkat T-cell leukemia cells; assay: as above; assay type: cell-based; conditions: Homo sapiens, 48 hours
Protocol: as §5, §6, §7

RPMI7951 melanoma cells [13] = assay: as above; assay type: cell-based; conditions: Homo sapiens, RPMI-7951; 48 hours
Protocol: as §5, §6, §7

[14] = tested on: HeLa cervical carcinoma cells; assay: as above; assay type: cell-based; conditions: Homo sapiens, 48 hours
Protocol: as §5, §6, §7

[15] = tested on: MEK1-induced AP-1 promoter activity; assay: AP-1 promoter luciferase assay, HeLa cells expressing active MEK1 mutant; assay type: cell-based; conditions: Homo sapiens, 4 hours, read-out: IC50 inhibition of MEK1-induced AP-1 promoter activity
Protocol: FIG. 4. Compound SF-3-026 and analogs inhibit SRE and AP-1 transcription factor function. (a) HeLa cells were transfected with constructs containing SRE or AP-1 promoters driving luciferase expression and then stimulated with EGF in the presence or absence of SF-3-026 for 4 hours followed by measurements of luciferase activity. Cells treated with U0126 were used as a positive inhibitor control. (b and c) HeLa cells were prepared and treated as in (a) with the indicated concentrations of SF-3-026 or analogs for 4 hours followed by the measurement of luciferase activity regulated by the SRE (b) or AP-1 (c) promoters. Data in (b and c) were normalized to EGF-only treatment and represent the mean and standard deviation from three independent experiments. (d) Compound SF-3-026 and analogs inhibit MEK1-induced AP-1 transcription factor function. HeLa cells were transfected with the AP-1 promoter construct and a constitutively active MEK1 mutant in the presence (10 μM) or absence of the MEK1/2 inhibitor (U0126) or an ATP-competitive ERK inhibitor (ERKi) for 4 hours followed by measurements of luciferase activity. (e) Cells expressing the AP-1 promoter and an active MEK-1 construct were treated with the indicated concentrations of SF-3-026 or analogs for 4 hours followed by the measurement of luciferase activity. Data in (e) were normalized to active MEK1-only treatment and represent the mean and standard deviation from three independent experiments.
as §2, with “(40,000” for “(4×10^4”, “hours” for “hours prior”, “pre-treated” for “treated”, “varying amounts” for “increasing amount”, “hr. In some experiments, cells transfected with the pAP1(PMA)-TA-Luc promoter and a constitutively active MEK1 mutant cDNA were treated with varying amounts of compounds during the last 4 hours of incubation.” for “hr.”, “sample. […]” for “sample.”

Structure (SMILES)	Cell Viability (% of Vehicle) SK-MEL-28 (SK-MEL-28 melanoma cells [1])	Cell Viability (% of Vehicle) HL-60 (HL-60 leukemic cells)	Cell Viability (% of Vehicle) A375 (A375 melanoma cells [2])	Cell Viability (% of Vehicle) Jurkat [3]	Cell Viability (% of Vehicle) RPMI-7951 (RPMI-7951 melanoma cells)	Cell Viability (% of Vehicle) HeLa [4]	pKa [5]	GI50 (Jurkat cells) [µM]	GI50 (SK-MEL-28 melanoma cells [8]) [µM]	GI50 (A375 melanoma cells [9]) [µM]	GI50 (RPMI7951 melanoma cells [10]) [µM]	GI50 (HeLa cells) [µM]	also measured
CCOc1ccc(/C=C2\SC(=O)N(Cc3cccc(N)n3)C2=O)cc1 [Compound 28b, (Z)-3-((6-aminopyridin-2-yl)methyl)-5-(4-ethoxybenzylidene)thiazolidine-2,4-dione]	86 ± 3 % of Vehicle	107 ± 26 % of Vehicle	111 ± 1 % of Vehicle	105 ± 5 % of Vehicle	101 ± 4 % of Vehicle	87 ± 6 % of Vehicle	~6						
[H]/N=C(/N)NCCN1C(=O)SC(=Cc2ccc(OCC)cc2)C1=O [Compound 28c, (Z)-1-(2-(5-(4-ethoxybenzylidene)-2,4-dioxothiazolidin-3-yl)ethyl)guanidine]	55 ± 6 % of Vehicle	20 ± 6 % of Vehicle	31 ± 4 % of Vehicle	6.5 ± 0.5 % of Vehicle	42 ± 6 % of Vehicle	17 ± 2 % of Vehicle	~12						
CC(C)COc1ccc(/C=C2\SC(=O)N(CCN)C2=O)cc1 [Compound 30g, (Z)-3-(2-aminoethyl)-5-(4-isobutoxybenzylidene)thiazolidine-2,4-dione]	0.8 ± 0.2 % of Vehicle	5.0 ± 2 % of Vehicle	1.8 ± 0.5 % of Vehicle	91 ± 8 % of Vehicle	0.3 ± 0.04 % of Vehicle	48 ± 3 % of Vehicle		> 100	36	22	11	~100	IC50 ([6]; Homo sapiens, EGF 25 ng/mL, read-out: estimated IC50 SRE promoter activity): ≤ 5 µM; IC50 ([7]; Homo sapiens, EGF 25 ng/mL, read-out: estimated IC50 AP-1 promoter activity): ≤ 5 µM
NCCN1C(=O)S/C(=C\c2ccc(OCc3ccccc3)cc2)C1=O [Compound 30h, (Z)-3-(2-aminoethyl)-5-(4-(benzyloxy)benzylidene)thiazolidine-2,4-dione]	1.0 ± 1 % of Vehicle	5.2 ± 2 % of Vehicle	0.6 ± 0.4 % of Vehicle	87 ± 5 % of Vehicle	0.2 ± 0.04 % of Vehicle	59 ± 3 % of Vehicle		> 100	9	7	7	> 100	inhibition of ERK-mediated SRE promoter activity ([6]; EGF): less potent than compounds 76 and 30g at lower concentrations; inhibition of ERK-mediated AP-1 promoter activity ([7]; EGF): less potent than compounds 76 and 30g at lower concentrations
O=S1(=O)C=CC(OS(=O)(=O)c2ccc(-c3ccccc3)cc2)C1 (stereo not shown) [SF-3-029]													IC50 (AP-1 promoter): < 10 µM; GI50 (A375 melanoma cells [11]): 7.9 µM; GI50 [12]: > 50 µM; GI50 (RPMI7951 melanoma cells [13]): 4.9 µM; GI50 [14]: 25 µM; IC50 [15]: 5 to 10 µM
